pKd: −log10 of the molar value. Read-outs that look alike come from different tables or passages of the source.
Tests used:
[1] = biological target: T1, EPHA2 kinase domain (D596-G900) (Homo sapiens, UniProt P29317); assay: Microscale thermophoresis; assay type: binding; details: read-out: KD MST, 25 °C, 5% DMSO, duplicates
T1 sequence (P29317 596-900): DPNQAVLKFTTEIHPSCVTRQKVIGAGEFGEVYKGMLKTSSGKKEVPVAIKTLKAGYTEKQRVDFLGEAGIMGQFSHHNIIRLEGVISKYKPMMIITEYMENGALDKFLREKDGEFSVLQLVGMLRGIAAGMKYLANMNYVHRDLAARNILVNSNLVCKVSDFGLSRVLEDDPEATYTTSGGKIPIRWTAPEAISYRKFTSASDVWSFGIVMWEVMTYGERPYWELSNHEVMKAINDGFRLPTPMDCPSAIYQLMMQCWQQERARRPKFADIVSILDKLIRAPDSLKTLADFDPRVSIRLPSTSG

[2] = tested on: human colon carcinoma cells; details: panel of cell lines; cited from earlier work
[3] = biological target: T1, EPHA2 kinase domain (D596-G900); details: read-out: KD MST, reported previously ref 18; cited from earlier work
human CRC = details: cited from earlier work

Row | pKd [1] | SMILES | effect on proliferation of human colon carcinoma cells [2] | pKd [3] | effect on growth of human CRC in mice (human CRC)
1 | 8.00 | Cc1ccc(NC(=O)c2cccc(C(F)(F)F)c2)cc1Nc1nc(-c2cccnc2)nc2c1cnn2C [Compound 7] |  |  | 
2 | 8.70 | COc1cccc(NC(=O)c2ccc(C)c(Nc3nc(-c4cccnc4)nc4c3cnn4C)c2)c1 [Compound 14] |  |  | 
3 |  | Cc1ccc(C(=O)Nc2cccc(C(F)(F)F)c2)cc1Nc1nc(-c2cccnc2)nc2c1cnn2C [NVP, NVP-BHG712] | reduce the proliferation |  | 
4 |  | Cc1ccc(C(=O)Nc2cccc(C(F)(F)F)c2)cc1Nc1nc(-c2cccnc2)nc2nn(C)cc12 [NVPiso] | reduce the proliferation | 7.14 | inhibited the growth of human CRC in mice
